According to US20140113958A1, “HCV Combination Therapy” (priority 2011, published 2014):
“Also recorded” adds a separate entry of the source. Like-named read-outs stand apart in the source and are kept apart here.

What was measured:
Huh-luc/neo-ET cells = assay: Cellular toxicity by XTT dye reduction in Huh-luc/neo-ET cells
Description: The anti-viral efficacy and cellular toxicity of non-transfected antimiR oligonucleotide in combination with approved and experimental anti-HCV therapeutics (e.g. NM283, 2′-C-methylcytidine, and/or VX-222) (or other NS5B polymerase inhibitors) was determined in the reporter cell line Huh-luc/neo-ET. This cell line harbors the persistently replicating I389luc-ubi-neo/NS3-3′/ET replicon containing the firefly luciferase gene-ubiquitin-neomycin phosphotransferase fusion protein and EMCV IRES driven NS3-5B HCV coding sequences containing the ET tissue culture adaptive mutations (E1202G, T1208I, and K1846T). Eight dilutions of non-transfected antimiR oligonucleotide (bracketing the calculated EC50) were evaluated in triplicate on duplicate sets of three plates with five dilutions of each of the control compounds (bracketing the calculated EC50). One set of plates was used for the determination of cellular toxicity and the other set of plates was used for the determination of anti-viral efficacy. The efficacy and toxicity results was quantified with firefly luciferase activity and XTT dye reduction, respectively, and the results of the assay is imported into the Prichard and Shipman MacSynergy II software program. The MacSynery II analysis includes calculation of the dose response of the two (or more) compounds when used alone followed by calculation of the expected additive level of antiviral inhibition or toxicity when the compounds are used together based on the individual dose response curves. The expected level of activity at each of the concentration data points was compared to the experimentally determined antiviral activity in the assay. The expected activity was subtracted from the realized activity, yielding a negative, zero or positive value. These values are plotted as a three dimensional representation of the data and the result is reported as a two-factor value, expressing the combined average above the expected level of activity (synergy volume) and the combined average below the expected level of activity (antagonism volume). Combination analysis was performed two or more times for each pair of test compound and control substance.
The reporter cell line Huh-luc/neo-ET was obtained from Dr. Ralf Bartenschlager (Department of Molecular Virology, Hygiene Institute, University of Heidelberg, Germany) by ImQuest BioSciences. This cell line harbors the persistently replicating 1389luc-ubi-neo/NS3-3′IET replicon containing the firefly luciferase gene-ubiquitinneomycin phosphotransferase fusion protein and EMCV IRES driven NS3-5B HCV coding sequences containing the ET tissue culture adaptive mutations (E 1202G, T12081, and KI846T). A stock culture of the Huh-luc/neo-ET was expanded by culture in DMEM supplemented with 10% FBS, 2 mM glutamine, penicillin (100 IU/mL)/streptomycin (100 f·Ig/mL) and IX nonessential amino acids plus I mg/ml G418. Prior to plating, the cells were split 1:4 and cultured for two passages in the same medium plus 250 f·Ig/mL G418. The cells were treated with trypsin and enumerated by staining with trypan blue and seeded into 96-well tissue culture plates at a cell culture density 5.0×10^3 cells per well in a volume of 85 f·IL per well and incubated at […] in an environment of 5% CO2 for 24 hours. Six plates were established for the determination of combination efficacy (EC50) and cytotoxicity (TC50) for each of the compound combinations (three plates each for efficacy and toxicity). […]

[1] = tested on: HCV genotype 1b replicon NS3 A156T; format: cell-based; settings: EC50 mutant / EC50 wild-type, mean of two experiments (individual values)
Description: (§1) The in vitro antiviral of miravirsen was evaluated against wild-type HCV genotype 1b replicon and HCV genotype 1b replicons constructed to contain key amino acid substitutions in NS3 protease (A156T, R155K), NS5B polymerase (S282T, M423I) and NS5A protein (Y93H) in transient transfection assays utilizing Huh 7 cells. […] Huh 7 cells were transfected with either the wild-type or the mutant RNA constructs by electroporation. Luciferase activity was measured 72 hours after compound treatment and EC50 values determined from dose-response curves. Fold resistance was expressed as the ratio of the EC50 for mutant HCV replicon to the EC50 for wild-type HCV replicon.
(§2) The in vitro antiviral of miravirsen was evaluated against wild-type HCV genotype 1b replicon and HCV replicons constructed to contain key amino acid substitutions in NS3 protease (A156T, R155K), NS5B polymerase (S282T, M423I) and NS5A protein (Y93H) in transient transfection assays. […] Huh 7 cells were transfected with either the wild type or the mutant RNA constructs by electroporation. Luciferase activity was measured 72 hours after compound treatment and EC50 values determined from dose-response curves. Fold resistance was expressed as the ratio of the EC50 for mutant HCV replicon to the EC50 for wild-type HCV replicon. Results are expressed as the mean of two individual experiments. In an initial set of experiments, the standard protocol was modified by adding compounds 24 hours after electroporation. […] In a third experiment cells were pretreated with miravirsen for 24 hours before electroporation with wild-type RNA constructs to determine if preincubation could result in increased miravirsen antiviral activity.

[2] = tested on: HCV genotype 1b replicon NS3 R155K; format: cell-based; settings: EC50 mutant / EC50 wild-type, mean of two experiments (individual values)
Description: as §1, §2

[3] = tested on: HCV genotype 1b replicon NS5B S282T; format: cell-based; settings: EC50 mutant / EC50 wild-type; mean of two experiments (individual values)
Description: as §1, §2

[4] = tested on: Huh-luc/neo-ET HCV genotype Ib replicon cells; format: cell-based; settings: for rate of cell expansion / resistant clonal populations: selection with G418, 28 days; for resistant clonal populations: crystal violet
Description: Cell culture and Assay setup: The reporter cell line Huh-luc/neo-ET was obtained and prepare as described previously. Cells were plated into 10 cm tissue culture dishes at a density of 3×10^5 cells per plate in culture medium containing 250 μg/ml G418 and incubated for 24 hours at 37° C. in an environment of 5% C02. Following the 24 hour incubation, dilutions of SPC3649, SPC4729, or telaprevir were prepared in cell culture medium (as above) with 750 μg/ml G418. Each of the dilutions was added to duplicate plates and the plates were incubated at 37° C. in an environment of 5% CO^2. Two additional plates received cell culture medium with 750 μg/ml G418 as a no-treatment control. […] The final concentration of SPC4729 was 10.0 μM. […] Following 28 days of passage, one set of dishes was stained with crystal violet and the other set of plates was utilized for expansion and establishment of resistant cell culture stocks.
Huh-luc/neo-ET HCY genotype Ib replicon cells were cultured under selective pressure in the presence of 750 μg/mL G4 I8 with and without four independent fixed concentrations of SPC3649 anti-miR oligonucleotide, or telaprevir, or one concentration of scrambled oligonucleotide SPC4729 for 28 days in tissue culture plates. Duplicate tissue culture dishes were established and maintained for each culture condition. Medium was replaced bi-weekly during the 28 days of culture and the cells were split at the time of medium replenishment to maintain a confluent cell culture monolayer. Following four weeks in culture, cells were either fixed with methanol and stained with crystal violet or expanded for subsequent phenotypic and genotypic characterization.

[5] = in combination with ribavirin, 95% confidence level
[6] = second drug in combination with miravirsen (SPC3649), 95% confidence interval, median or individual values

In the case of “5′-^mCs^ocsAs^otstsGs^oTs^ocsas^mCs^oas^mCs^ots^mCs^omC^o-3′ (CCATTGTCACACTCC; all phosphorothioate, sugars by position and methylation of C not given here; further chemistry not fully specified) [miravirsen]”, the CC50 (Huh-luc/neo-ET cells; read-out: CC50 (+/−SD), tested alone) is reported as over 158 µM, the “fold change in susceptibility, NS3 A156T” value [1] is reported as 1.0 (1.4, 0.5) fold and the “fold change in susceptibility, NS3 R155K” value [2] is reported as 1.2 (1.9, 0.4) fold. The “fold change in susceptibility, NS5B S282T” value [3] was 1.9 (2.6, 1.1) fold, the “rate of cell expansion” value [4] was “decrease in the rate of cell expansion” and the resistant clonal populations ([4]; listed as SPC3649) was “failed to produce distinct individual resistant clonal populations; also recorded: distinct individual resistant clonal populations were not produced”.

For `CCC[C@H](NC(=O)[C@@H]1[C@H]2CCC[C@H]2CN1C(=O)[C@@H](NC(=O)[C@@H](NC(=O)c1cnccn1)C1CCCCC1)C(C)(C)C)C(=O)C(=O)NC1CC1` [Telaprevir, (1S,3aR,6aS)-2-[(2S)-2-[[(2S)-2-Cyclohexyl-2-(pyrazine-2-carbonylamino)acetyl]amino]-3,3-dimethylbutanoyl]-N-[(3S)-1-(cyclopropylamino)-1,2-dioxohexan-3-yl]-3,3a,4,5,6,6a-hexahydro-1H-cyclopenta[c]pyrrole-1-carboxamide], the “impact of combination on in vitro cytotoxicity” value (Huh-luc/neo-ET cells; in combination with ribavirin) was “antagonistic interaction”, the “Cytotoxicity, Antag Vol” value (Huh-luc/neo-ET cells; [5]) was −50.9 μM^2% and the “Cytotoxicity, Synergy vol” value (Huh-luc/neo-ET cells; [5]) was 0.00 μM^2%. For the same molecule, the “Cytotoxicity, Antagonism vol” value (Huh-luc/neo-ET cells; [6]) was −5.05 μM^2%, the “Cytotoxicity, Synergy vol” value (Huh-luc/neo-ET cells; [6]) was 0 μM^2% and the “fold change in susceptibility, NS3 A156T” value [1] was 36.1 (46.9, 25.2) fold. The “fold change in susceptibility, NS3 A156T” value ([1]; listed as telaprevir) was 36.1 fold, the “fold change in susceptibility, NS3 R155K” value [2] was 4.6 (5.0, 4.2) fold and the “fold change in susceptibility, NS3 R155K” value ([2]; listed as telaprevir) was 4.6 fold. For the same molecule, the “fold change in susceptibility, NS5B S282T” value [3] was 1.0 (1.0, 1.0) fold, the Cell split ratio ([4]; 1.50 μM plus G418, day 15) was “N.S” and the Cell split ratio ([4]; 1.50 μM plus G418, day 22) was “N.S”. For the same molecule, the Cell split ratio ([4]; 3.00 μM plus G418, day 15) was “N.S”, the Cell split ratio ([4]; 3.00 μM plus G418, day 18) was “N.S” and the Cell split ratio ([4]; 3.00 μM plus G418, day 22) was “N.S”. The Cell split ratio ([4]; 3.00 μM plus G418, day 25) was “N.S”, the Cell split ratio ([4]; 6.00 μM plus G418, day 11) was “N.S” and the Cell split ratio ([4]; 6.00 μM plus G418, day 15) was “N.S”. For the same molecule, the Cell split ratio ([4]; 6.00 μM plus G418, day 18) was “N.S”, the Cell split ratio ([4]; 6.00 μM plus G418, day 22) was “N.S” and the Cell split ratio ([4]; 6.00 μM plus G418, day 25) was “N.S”. For the same molecule, the “rate of cell expansion” value [4] was “dose-dependent decrease in the rate of cell expansion” and the resistant clonal populations [4] was “production of distinct individual resistant clonal populations”.
